Test results as given in patent publication US10669283B2, “Compound and pharmacologically acceptable salt thereof” (MEIJI SEIKA PHARMA CO., LTD., priority 2016, dated 2020).
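Wherever PDE4 Inhibitory Activity (concentration for the inhibition rate of 50%) is given: A below 100 nM B 100 to below 1000 nM C 1000 nM or more.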

What follows are compounds tested on PDE4 (assay: PDE4 inhibition, scintillation proximity assay (SPA)). Details: scintillation proximity assay (SPA); evaluated as classes A, B, C; read-out: PDE4 Inhibitory Activity (concentration for the inhibition rate of 50%).
Assay type: biochemical
Procedure: The PDE4 inhibitory activity was measured using scintillation proximity assay (SPA) as follows. A sample compound dissolved in dimethyl sulfoxide was diluted 1:10 in reaction buffer solution which contained 50 mM of Tris-HCl with pH 7.4, 8.3 mM of MgCl2, 1.7 mM of EGTA, and 3 mg/mL of bovine serum albumin (BSA). Then, 10 μL of the diluted solution was added in a 96-well assay plate. Moreover, 50 μL of PDE4 diluted 1:375 in the reaction buffer solution was added, and then 40 μL of [2,8-^3H]-adenosine-3′,5′-cyclic phosphate triethylammonium salt diluted 1:1000 in the reaction buffer solution was added. The mixture was allowed to stand at room temperature for 120 minutes. Thereafter, […] of RNA binding YSi-SPA beads suspension containing ZnSO4 was added and the mixture was allowed to stand at room temperature for 15 minutes, followed by adsorption of the enzyme reaction product to the beads. After that, the radioactivity was measured using a liquid scintillation counter for a 96-well plate. The mixture without the enzyme preparation added but only the reaction buffer solution added is a blank, and the mixture with the enzyme preparation added and only dimethyl sulfoxide added instead of the sample solution is a control.
With `COC(C)(C)c1cc(-c2cscn2)c2oc(N3CC4CC(C3)N4)nc2c1OC(F)(F)F` [Example 287, 2-(3,6-Diazabicyclo[3.1.1]heptan-3-yl)-5-(2-methoxypropan-2-yl)-7-(thiazol-4-yl)-4-(trifluoromethoxy)benzo[d]oxazole] the IC50 was under 0.1 µM.
`O=C(c1ccc(-c2nccs2)c2oc(N3CC4CCC(C3)N4)nc12)N1CCOCC1` [Example 116, (2-(3,8-Diazabicyclo[3.2.1]octan-3-yl)-7-(thiazol-2-yl)benzo[d]oxazol-4-yl)(morpholino)methanone] showed an IC50 of under 0.1 µM.
Compound `COC(c1ccc(-c2nccs2)c2oc(N3CC4CC(C3)N4)nc12)C(F)(F)F` (stereo not drawn) [Example 123, 2-(3,6-Diazabicyclo[3.1.1]heptan-3-yl)-7-(thiazol-2-yl)-4-(2,2,2-trifluoro-1-methoxyethyl)benzo[d]oxazole] has an IC50 of under 0.1 µM.
For `FC(F)(F)c1c(Cl)cc(-n2cccn2)c2oc(N3CC4COCC(C3)N4)nc12` [Example 18, 7-(5-Chloro-7-(1H-pyrazol-1-yl)-4-(trifluoromethyl)benzo[d]oxazol-2-yl)-3-oxa-7,9-diazabicyclo[3.3.1]nonane], the IC50 was 0.1 to 1 µM.
`O=C(c1cc(-c2nccs2)c2oc(N3CC4CCC(C3)N4)nc2c1)N1CCCCC1` [Example 96, (2-(3,8-Diazabicyclo[3.2.1]octan-3-yl)-7-(thiazol-2-yl)benzo[d]oxazol-5-yl)(piperidin-1-yl)methanone] was tested, and the IC50 was under 0.1 µM.
In the case of `CC(O)(c1cc(-c2nccs2)c2oc(N3CC4CCCC(C3)N4)nc2c1)C(F)(F)F` (stereo not drawn) [Example 161, 2-(2-(3,9-Diazabicyclo[3.3.1]nonan-3-yl)-7-(thiazol-2-yl)benzo[d]oxazol-5-yl)-1,1,1-trifluoropropan-2-ol], the IC50 is reported as under 0.1 µM.
`COCCOC(c1ccc(-c2nccs2)c2oc(N3CC4CC(C3)N4)nc12)C(F)(F)F` (stereo not drawn) [Example 229, 2-(3,6-Diazabicyclo[3.1.1]heptan-3-yl)-7-(thiazol-2-yl)-4-(2,2,2-trifluoro-1-(2-methoxyethoxy)ethyl)benzo[d]oxazole] was tested, and the IC50 was under 0.1 µM.
`FC(F)(F)Oc1c(Cl)cc(-c2ccccn2)c2oc(N3CC4CCC(C3)N4)nc12` [Example 7, 2-(3,8-Diazabicyclo[3.2.1]octan-3-yl)-5-chloro-7-(pyridin-2-yl)-4-(trifluoromethoxy)benzo[d]oxazole] was tested, and the IC50 was under 0.1 µM.
With `CC(O)c1cc(-c2nccs2)c2oc(N3CC4CC(C3)N4)nc2c1OC(F)(F)F` (stereo not drawn) [Example 273, 1-(2-(3,6-Diazabicyclo[3.1.1]heptan-3-yl)-7-(thiazol-2-yl)-4-(trifluoromethoxy)benzo[d]oxazol-5-yl)ethan-1-ol] the IC50 was under 0.1 µM.
Compound `CNC(=O)c1cc(-c2nccs2)c2oc(N3CC4CCC(C3)N4)nc2c1` [Example 100, 2-(3,8-Diazabicyclo[3.2.1]octan-3-yl)-N-methyl-7-(thiazol-2-yl)benzo[d]oxazole-5-carboxamide] has an IC50 of under 0.1 µM.
Work on `FC(F)(F)c1c(Cl)cc(-c2ccccn2)c2oc(N3CC4COCC(C3)N4)nc12` [Example 14, 7-(5-Chloro-7-(pyridin-2-yl)-4-(trifluoromethyl)benzo[d]oxazol-2-yl)-3-oxa-7,9-diazabicyclo[3.3.1]nonane] yielded an IC50 of 0.1 to 1 µM.
`COC(C)c1ccc(-c2nccs2)c2oc(N3CC4CC(C3)N4)nc12` (stereo not drawn) [Example 241, 2-(3,6-Diazabicyclo[3.1.1]heptan-3-yl)-4-(1-methoxyethyl)-7-(thiazol-2-yl)benzo[d]oxazole] showed an IC50 of under 0.1 µM.
Compound `CC(O)(c1ccc(-c2nccs2)c2oc(N3CC4CCC(C3)N4)nc12)C(F)F` (stereo not drawn) [Example 129, 2-(2-(3,8-Diazabicyclo[3.2.1]octan-3-yl)-7-(thiazol-2-yl)benzo[d]oxazol-4-yl)-1,1-difluoropropan-2-ol] has an IC50 of under 0.1 µM.
In the case of `N#CCOc1ccc(-c2nccs2)c2oc(N3CC4CCC(C3)N4)nc12` [Example 82, 2-((2-(3,8-Diazabicyclo[3.2.1]octan-3-yl)-7-(thiazol-2-yl)benzo[d]oxazol-4-yl)oxy)acetonitrile], the IC50 is reported as under 0.1 µM.
In the case of `FC(F)(F)c1c(Cl)cc(-c2ccccn2)c2oc(N3CC4CC(C3)N4)nc12` [Example 13, 2-(3,6-Diazabicyclo[3.1.1]heptan-3-yl)-5-chloro-7-(pyridin-2-yl)-4-(trifluoromethyl)benzo[d]oxazole], the IC50 is reported as under 0.1 µM.
In the case of `c1csc(-c2cc(CN3CCOCC3)cc3nc(N4CC5CCC(C4)N5)oc23)n1` [Example 168, 2-(3,8-Diazabicyclo[3.2.1]octan-3-yl)-5-(morpholinomethyl)-7-(thiazol-2-yl)benzo[d]oxazole], the IC50 is reported as under 0.1 µM.
`COC(c1cc(-c2nccs2)c2oc(N3CC4CCCC(C3)N4)nc2c1)C(F)(F)F` (stereo not drawn) [Example 145, 2-(3,9-Diazabicyclo[3.3.1]nonan-3-yl)-7-(thiazol-2-yl)-5-(2,2,2-trifluoro-1-methoxyethyl)benzo[d]oxazole] was tested, and the IC50 was under 0.1 µM.
Work on `CC(C)(O)c1cc(-c2nccs2)c2oc(N3CC4CCCC(C3)N4)nc2c1OC(F)(F)F` [Example 197, 2-(2-(3,9-Diazabicyclo[3.3.1]nonan-3-yl)-7-(thiazol-2-yl)-4-(trifluoromethoxy)benzo[d]oxazol-5-yl)propan-2-ol] yielded an IC50 of under 0.1 µM.
`CC(=O)c1ccc(-c2nccs2)c2oc(N3CC4CCC(C3)N4)nc12` [Example 245, 1-(2-(3,8-Diazabicyclo[3.2.1]octan-3-yl)-7-(thiazol-2-yl)benzo[d]oxazol-4-yl)ethan-1-one] gave an IC50 of under 0.1 µM.
With `OCC(F)(F)Oc1ccc(-c2cscn2)c2oc(N3CC4CC(C3)N4)nc12` [Example 311, 2-((2-(3,6-Diazabicyclo[3.1.1]heptan-3-yl)-7-(thiazol-4-yl)benzo[d]oxazol-4-yl)oxy)-2,2-difluoroethan-1-ol] the IC50 was under 0.1 µM.
In the case of `FC(F)(F)COC(c1cc(-c2nccs2)c2oc(N3CC4CCC(C3)N4)nc2c1)C(F)(F)F` (stereo not drawn) [Example 146, 2-(3,8-Diazabicyclo[3.2.1]octan-3-yl)-7-(thiazol-2-yl)-5-(2,2,2-trifluoro-1-(2,2,2-trifluoroethoxy)ethyl)benzo[d]oxazole], the IC50 is reported as under 0.1 µM.
Work on `CCOC(c1ccc(-c2nccs2)c2oc(N3CC4CC(C3)N4)nc12)C(F)(F)F` (stereo not drawn) [Example 224, 2-(3,6-Diazabicyclo[3.1.1]heptan-3-yl)-4-(1-ethoxy-2,2,2-trifluoroethyl)-7-(thiazol-2-yl)benzo[d]oxazole] yielded an IC50 of under 0.1 µM.
Work on `FC(F)(F)c1ccc(-c2nccs2)c2oc(N3CC4CCC(C3)N4)nc12` [Example 31, 2-(3,8-Diazabicyclo[3.2.1]octan-3-yl)-7-(thiazol-2-yl)-4-(trifluoromethyl)benzo[d]oxazole] yielded an IC50 of under 0.1 µM.
`c1csc(-c2ccc(OC3CCOC3)c3nc(N4CC5CCC(C4)N5)oc23)n1` (stereo not drawn) [Example 84, 2-(3,8-Diazabicyclo[3.2.1]octan-3-yl)-4-((tetrahydrofuran-3-yl)oxy)-7-(thiazol-2-yl)benzo[d]oxazole] gave an IC50 of under 0.1 µM.
`CN(C)C(=O)c1ccc(-c2nccs2)c2oc(N3CC4CCC(C3)N4)nc12` [Example 115, 2-(3,8-Diazabicyclo[3.2.1]octan-3-yl)-N,N-dimethyl-7-(thiazol-2-yl)benzo[d]oxazole-4-carboxamide] was tested, and the IC50 was under 0.1 µM.
For `COC(C)(c1ccc(-c2nccs2)c2oc(N3CC4CC(C3)N4)nc12)C(F)(F)F` (stereo not drawn) [Example 235, 2-(3,6-Diazabicyclo[3.1.1]heptan-3-yl)-7-(thiazol-2-yl)-4-(1,1,1-trifluoro-2-methoxypropan-2-yl)benzo[d]oxazole], the IC50 was under 0.1 µM.
`C[S+]([O-])c1cc(-c2nccs2)c2oc(N3CC4CC(C3)N4)nc2c1` (stereo not drawn) [Example 43, 2-(3,6-Diazabicyclo[3.1.1]heptan-3-yl)-5-(methylsulfinyl)-7-(thiazol-2-yl)benzo[d]oxazole] showed an IC50 of under 0.1 µM.
For `COC(C)c1cc(-c2nccs2)c2oc(N3CC4CCC(C3)N4)nc2c1C(F)(F)F` (stereo not drawn) [Example 184, 2-(3,8-Diazabicyclo[3.2.1]octan-3-yl)-5-(1-methoxyethyl)-7-(thiazol-2-yl)-4-(trifluoromethyl)benzo[d]oxazole], the IC50 was under 0.1 µM.
`COC(c1cc(-c2nccs2)c2oc(N3CC4CCC(C3)N4)nc2c1)C(F)F` (stereo not drawn) [Example 105, 2-(3,8-Diazabicyclo[3.2.1]octan-3-yl)-5-(2,2-difluoro-1-methoxyethyl)-7-(thiazol-2-yl)benzo[d]oxazole] showed an IC50 of under 0.1 µM.
In the case of `OC(c1cc(-c2cscn2)c2oc(N3CC4CC(C3)N4)nc2c1OC(F)(F)F)C(F)F` (stereo not drawn) [Example 300, 1-(2-(3,6-Diazabicyclo[3.1.1]heptan-3-yl)-7-(thiazol-4-yl)-4-(trifluoromethoxy)benzo[d]oxazol-5-yl)-2,2-difluoroethan-1-ol], the IC50 is reported as under 0.1 µM.
Work on `FC(F)(F)COc1cc(-c2nccs2)c2oc(N3CC4CC(C3)N4)nc2c1` [Example 67, 2-(3,6-Diazabicyclo[3.1.1]heptan-3-yl)-7-(thiazol-2-yl)-5-(2,2,2-trifluoroethoxy)benzo[d]oxazole] yielded an IC50 of under 0.1 µM.

Same assay, conditions: scintillation proximity assay; class symbols; read-out: PDE4 Inhibitory Activity
In the case of `CC(O)(O)C(F)(F)Oc1ccc(-c2nccs2)c2oc(N3CC4CC(C3)N4)nc12` [Example 377, 1-((2-(3,6-diazabicyclo[3.1.1]heptan-3-yl)-7-(thiazol-2-yl)benzo[d]oxazol-4-yl)oxy)-1,1-difluoropropane-2,2-diol], the IC50 is reported as under 0.1 µM.
Work on `O=S(=O)(c1ccc(-c2nccs2)c2oc(N3CC4CC(C3)N4)nc12)N1CCCC1` [Example 390, 2-(3,6-diazabicyclo[3.1.1]heptan-3-yl)-4-(pyrrolidin-1-yl-sulfonyl)-7-(thiazol-2-yl)benzo [d]oxazole] yielded an IC50 of under 0.1 µM.
